Test results from patent US9586951B2 (FUJIFILM Corporation, priority 2013, dated 2017).

Target: T1, ATM (Homo sapiens, UniProt Q13315)
T1 construct: detecting phosphorylation of Chk2 in a human non-small cell lung cancer cell line NCI-H460 (ATCC company); host or cells: NCI-H460 human non-small cell lung cancer cells
Test: ATM inhibition test (phosphorylation of Chk2 generated by ionizing radiation, AlphaScreen SureFire)
Type: cell-based
Settings: phosphorylated Chk2 in NCI-H460 cells, ionizing radiation 8Gy, 1 hour after test compound treatment; read-out: ATM inhibitory activity
Procedure, shortened: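 Phosphorylated Chk2 read by AlphaScreen SureFire in human non-small cell lung cancer NCI-H460 cells, 1 hour after 8Gy ionizing radiation at 37° C. Compound added 1 hour before irradiation. Percent inhibition normalised between irradiated and non-irradiated drug-untreated signals.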

T1 sequence (Q13315 whole entry): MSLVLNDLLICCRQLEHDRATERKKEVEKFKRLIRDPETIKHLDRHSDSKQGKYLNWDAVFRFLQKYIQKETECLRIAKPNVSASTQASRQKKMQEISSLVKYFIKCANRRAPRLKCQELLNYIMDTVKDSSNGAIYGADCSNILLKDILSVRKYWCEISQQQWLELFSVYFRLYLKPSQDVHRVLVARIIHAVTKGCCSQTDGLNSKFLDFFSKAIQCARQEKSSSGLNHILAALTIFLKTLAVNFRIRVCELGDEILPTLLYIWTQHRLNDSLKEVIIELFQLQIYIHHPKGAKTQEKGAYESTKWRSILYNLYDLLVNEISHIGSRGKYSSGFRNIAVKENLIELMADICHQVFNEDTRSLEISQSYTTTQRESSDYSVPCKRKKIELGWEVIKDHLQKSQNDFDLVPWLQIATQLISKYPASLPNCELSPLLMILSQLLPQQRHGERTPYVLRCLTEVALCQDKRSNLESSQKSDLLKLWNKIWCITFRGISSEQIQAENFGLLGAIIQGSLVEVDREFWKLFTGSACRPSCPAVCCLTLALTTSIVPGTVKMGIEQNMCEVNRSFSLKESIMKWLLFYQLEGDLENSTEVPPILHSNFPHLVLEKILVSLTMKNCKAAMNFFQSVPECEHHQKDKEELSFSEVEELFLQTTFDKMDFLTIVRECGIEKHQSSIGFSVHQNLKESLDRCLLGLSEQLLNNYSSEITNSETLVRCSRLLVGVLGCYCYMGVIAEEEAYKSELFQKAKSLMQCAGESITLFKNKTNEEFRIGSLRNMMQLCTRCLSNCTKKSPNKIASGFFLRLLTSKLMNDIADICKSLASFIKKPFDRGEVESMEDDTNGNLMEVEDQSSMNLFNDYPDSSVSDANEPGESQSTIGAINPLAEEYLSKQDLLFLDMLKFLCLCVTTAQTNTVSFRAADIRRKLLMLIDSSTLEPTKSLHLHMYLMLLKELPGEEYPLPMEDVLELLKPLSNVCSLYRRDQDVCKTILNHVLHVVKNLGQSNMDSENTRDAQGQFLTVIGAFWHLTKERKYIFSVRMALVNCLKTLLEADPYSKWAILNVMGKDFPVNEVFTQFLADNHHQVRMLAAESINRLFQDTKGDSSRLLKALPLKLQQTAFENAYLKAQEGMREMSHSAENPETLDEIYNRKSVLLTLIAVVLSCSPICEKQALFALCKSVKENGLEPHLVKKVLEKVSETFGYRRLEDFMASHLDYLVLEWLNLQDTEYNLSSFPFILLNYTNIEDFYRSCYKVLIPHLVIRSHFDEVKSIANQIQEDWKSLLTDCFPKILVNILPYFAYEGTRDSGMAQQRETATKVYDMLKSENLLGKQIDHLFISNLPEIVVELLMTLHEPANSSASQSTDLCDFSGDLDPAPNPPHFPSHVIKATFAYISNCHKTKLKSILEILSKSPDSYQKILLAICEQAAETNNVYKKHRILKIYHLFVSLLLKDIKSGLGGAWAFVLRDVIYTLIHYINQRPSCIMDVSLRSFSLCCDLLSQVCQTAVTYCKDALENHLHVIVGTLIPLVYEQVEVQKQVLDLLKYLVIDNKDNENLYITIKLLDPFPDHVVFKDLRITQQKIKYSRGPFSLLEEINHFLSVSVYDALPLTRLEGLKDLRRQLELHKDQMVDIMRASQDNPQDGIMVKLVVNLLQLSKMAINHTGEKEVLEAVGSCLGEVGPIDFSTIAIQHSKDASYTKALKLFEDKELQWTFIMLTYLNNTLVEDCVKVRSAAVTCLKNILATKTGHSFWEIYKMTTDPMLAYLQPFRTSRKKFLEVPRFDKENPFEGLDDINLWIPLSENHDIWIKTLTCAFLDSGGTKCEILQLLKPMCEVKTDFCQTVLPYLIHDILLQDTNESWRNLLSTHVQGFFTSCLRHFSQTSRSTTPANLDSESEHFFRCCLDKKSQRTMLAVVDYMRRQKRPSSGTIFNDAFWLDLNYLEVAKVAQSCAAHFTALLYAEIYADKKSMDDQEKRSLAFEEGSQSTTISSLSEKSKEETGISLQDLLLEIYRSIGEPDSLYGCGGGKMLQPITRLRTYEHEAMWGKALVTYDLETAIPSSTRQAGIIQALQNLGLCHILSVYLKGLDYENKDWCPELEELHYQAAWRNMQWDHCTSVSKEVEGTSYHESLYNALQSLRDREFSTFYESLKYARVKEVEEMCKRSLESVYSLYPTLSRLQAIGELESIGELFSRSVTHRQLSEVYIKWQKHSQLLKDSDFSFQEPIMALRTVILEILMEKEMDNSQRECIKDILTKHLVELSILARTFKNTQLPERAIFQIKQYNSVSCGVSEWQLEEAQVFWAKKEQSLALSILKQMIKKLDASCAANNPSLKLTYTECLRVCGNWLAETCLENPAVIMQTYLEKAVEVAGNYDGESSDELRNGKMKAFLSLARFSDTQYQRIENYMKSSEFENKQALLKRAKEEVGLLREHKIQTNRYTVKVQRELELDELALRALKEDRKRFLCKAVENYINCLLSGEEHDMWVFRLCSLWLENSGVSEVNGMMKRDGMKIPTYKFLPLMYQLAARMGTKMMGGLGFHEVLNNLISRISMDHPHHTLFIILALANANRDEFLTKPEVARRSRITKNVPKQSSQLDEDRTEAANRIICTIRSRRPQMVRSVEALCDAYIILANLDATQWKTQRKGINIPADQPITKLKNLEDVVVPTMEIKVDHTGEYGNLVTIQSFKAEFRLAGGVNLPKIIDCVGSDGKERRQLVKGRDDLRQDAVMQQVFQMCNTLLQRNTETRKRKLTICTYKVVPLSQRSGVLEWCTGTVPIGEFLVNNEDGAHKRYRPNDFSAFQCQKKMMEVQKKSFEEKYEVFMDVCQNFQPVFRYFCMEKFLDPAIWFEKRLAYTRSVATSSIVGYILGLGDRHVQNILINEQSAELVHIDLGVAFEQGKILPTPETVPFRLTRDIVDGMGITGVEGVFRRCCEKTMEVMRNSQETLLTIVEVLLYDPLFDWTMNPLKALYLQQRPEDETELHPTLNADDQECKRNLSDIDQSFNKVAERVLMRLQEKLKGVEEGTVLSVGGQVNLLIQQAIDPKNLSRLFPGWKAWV

| Structure (SMILES) | IC50 [nM] |
| --- | --- |
| O=c1cc(N2CCOCC2)cc(-c2cccc3c2Oc2ccc(NCc4ncccn4)cc2C3)[nH]1 [Example 2-3-4, 4-Morpholino-6-(7-((pyrimidin-2-ylmethyl)amino)-9H-xanthen-4-yl) pyridin-2(1H)-one] | 500 to 2000 |
| CC(C)(C)OC(=O)N1CCC[C@H]1C(=O)Nc1ccc2c(c1)Cc1cccc(-c3cc(N4CCOCC4)cc(=O)[nH]3)c1O2 [Example 2-20-2, (S)-tert-butyl 2-((5-(4-morpholino-6-oxo-1,6-dihydropyridin-2-yl)-9H-xanthen-2-yl)carbamoyl)pyrrolidine-1-carboxylate] | 500 to 2000 |
| COCc1ccc(CCN2CCC(Nc3ccc4c(c3)Cc3cccc(-c5cc(N6CCOCC6)cc(=O)[nH]5)c3O4)CC2)cc1 [Example 2-30-20, 6-(7-((1-(4-(Methoxymethyl)phenethyl)piperidin-4-yl)amino)-9H-xanthen-4-yl)-4-morpholino pyridin-2(1H)-one] | 500 to 2000 |
| CNc1ncc(CN2CCC(Nc3ccc4c(c3)Cc3cccc(-c5cc(N6CCOCC6)cc(=O)[nH]5)c3O4)CC2)cn1 [Example 2-28-12, 6-(7-((1-((2-(Methylamino)pyrimidin-5-yl)methyl)piperidin-4-yl)amino)-9H-xanthen-4-yl)-4-morpholino pyridin-2 (1H)-one] | 500 to 2000 |
| CC[C@H](N)C(CC(C)C)Nc1ccc2c(c1)Sc1cccc(-c3cc(N4CCOCC4)cc(=O)[nH]3)c1S2 (stereo partly drawn) [Example 1-20-7] | 500 to 2000 |
| Cc1cccc(C(CNC(=O)OC(C)(C)C)Nc2ccc3c(c2)Cc2cccc(-c4cc(N5CCOCC5)cc(=O)[nH]4)c2O3)n1 (stereo not drawn) [Example 2-14-46] | 100 to 500 |
| COc1cccnc1CNc1ccc2c(c1)Cc1ccnc(-c3cc(N4CCOCC4)cc(=O)[nH]3)c1O2 [Example 2-41-12, 6-(7-(((3-Methoxypyridin-2-yl)methyl)amino)-5H-chromeno [2,3-c]pyridin-1-yl)-4-morpholino pyridin-2(1H)-one] | 500 to 2000 |
| CN1CCOc2cc(CNc3ccc4c(c3)Cc3cccc(-c5cc(N6CCOCC6)cc(=O)[nH]5)c3O4)cnc21 [Example 2-2-5, 6-(7-(((4-Methyl-3,4-dihydro-2H-pyrido[3,2-b] [1,4]oxazin-7-yl)methyl)amino)-9H-xanthen-4-yl)-4-morpholino pyridin-2 (1H)-one] | 100 to 500 |
| O=c1cc(N2CCOCC2)cc(-c2cccc3c2Sc2ccc(NCc4cccnc4)cc2C3)[nH]1 [Example 3-8-1, 4-Morpholino-6-(7-((pyridin-3-ylmethyl)amino)-9H-thioxanthen-4-yl)pyridin-2(1H)-one] | 100 to 500 |
| CC(Nc1ccc2c(c1)Sc1cccc(-c3cc(N4CCOCC4)cc(=O)[nH]3)c1S2)c1ccnc(Cl)n1 (stereo not drawn) [Example 1-12-81, 6-(7-((1-(2-Chloropyrimidin-4-yl)ethyl)amino)thianthren-1-yl)-4-morpholino pyridin-2 (1H)-one] | 100 to 500 |
| Cc1cncc(C(CO)Nc2ccc3c(c2)Sc2cccc(-c4cc(N5CCOCC5)cc(=O)[nH]4)c2S3)c1 (stereo not drawn) [Example 1-12-66, 6-(7-((2-Hydroxy-1-(5-methylpyridin-3-yl)ethyl)amino)thianthren-1-yl)-4-morpholino pyridin-2(1H)-one] | 100 to 500 |
| CC(C)(C)OC(=O)N1CCCC(Nc2ccc3c(c2)Cc2cccc(-c4cc(N5CCOCC5)cc(=O)[nH]4)c2O3)CC1 (stereo not drawn) [Example 2-3-11, tert-Butyl 4-((5-(4-morpholino-6-oxo-1,6-dihydropyridin-2-yl)-9H-xanthen-2-yl)amino) azepane-1-carboxylate] | 100 to 500 |
| O=c1cc(N2CCOCC2)cc(-c2ccc(F)c3c2Oc2ccc(NCc4cncc(Cl)c4)cc2C3)[nH]1 [Example 2-44-3, 6-(7-(((5-Chloropyridin-3-yl)methyl)amino)-1-fluoro-9H-xanthen-4-yl)-4-morpholinopyridin-2(1H)-one] | 100 to 500 |

Continued, values first:

| IC50 [nM] | Structure (SMILES) |
| --- | --- |
| 100 to 500 | O=c1cc(N2CCOCC2)cc(-c2cccc3c2Oc2ccc(NCc4cncc(N5CCCC5)c4)cc2C3)[nH]1 [Example 2-2-63, 4-Morpholino-6-(7-(((5-(pyrrolidin-1-yl)pyridin-3-yl)methyl)amino)-9H-xanthen-4-yl)pyridin-2(1H)-one] |
| < 100 | O=c1cc(N2CCOCC2)cc(-c2cccc3c2Sc2ccc(NCc4cncc(-n5cccc5)c4)cc2S3)[nH]1 [Example 1-12-19, 6-(7-(((5-(1H-Pyrrol-1-yl)pyridin-3-yl)methyl)amino)thianthren-1-yl)-4-morpholino pyridin-2(1H)-one] |
| < 100 | Cc1ccc(C(CCN(C)C)Nc2ccc3c(c2)Sc2cccc(-c4cc(N5CCOCC5)cc(=O)[nH]4)c2S3)nc1 (single isomer, unassigned) [Example 1-51-5, 6-(7-((3-(Dimethylamino)-1-(5-methylpyridin-2-yl)propyl)amino)thianthren-1-yl)-4-morpholino pyridin-2 (1H)-one] |
| 100 to 500 | O=c1cc(N2CCOCC2)cc(-c2cccc3c2Oc2ccc(NC4CCN(Cc5ccccc5)CC4)cc2C3)[nH]1 [Example 2-28-24, 6-(7-((1-Benzylpiperidin-4-yl)amino)-9H-xanthen-4-yl)-4-morpholino pyridin-2 (1H)-one] |
| 100 to 500 | COCCN(CCOC)C[C@@H](COC)Nc1ccc2c(c1)Sc1cccc(-c3cc(N4CCOCC4)cc(=O)[nH]3)c1S2 [Example 1-46-3, (S)-6-(7-((1-(bis(2-methoxyethyl)amino)-3-methoxypropan-2-yl)amino)thianthren-1-yl)-4-morpholinopyridin-2(1H)-one] |
| 100 to 500 | O=c1cc(N2CCOCC2)cc(-c2cccc3c2Sc2ccc(NC4CCCN(C5COC5)C4)cc2S3)[nH]1 (stereo not drawn) [Example 1-24-6, 4-Morpholino-6-(7-((1-(oxetan-3-yl)piperidin-3-yl)amino)thianthren-1-yl) pyridin-2(1H)-one] |
| 100 to 500 | O=C(OCc1ccccc1)N1C[C@@H](N2CCOCC2)[C@H](Nc2ccc3c(c2)Sc2cccc(-c4cc(N5CCOCC5)cc(=O)[nH]4)c2S3)C1 (racemic) [Example 11-1, Benzyl 3-morpholino-4-((6-(4-morpholino-6-oxo-1,6-dihydropyridin-2-yl)thianthren-2-yl)amino)pyrrolidine-1-carboxylate] |
| 100 to 500 | COc1cccc(CNc2ccc3c(c2)Cc2cccc(-c4cc(N5CCOCC5)cc(=O)[nH]4)c2O3)n1 [Example 2-2-32, 6-(7-(((6-Methoxypyridin-2-yl)methyl)amino)-9H-xanthen-4-yl)-4-morpholino pyridin-2(1H)-one] |
| 100 to 500 | O=c1cc(N2CCOCC2)cc(-c2nccc3c2Oc2ccc(NCc4cc(C5CC5)ccn4)cc2C3)[nH]1 [Example 2-41-6, 6-(7-(((4-Cyclopropylpyridin-2-yl)methyl)amino)-5H-chromeno[2,3-c]pyridin-1-yl)-4-morpliolino pyridin-2 (1H)-one] |
| 100 to 500 | CC1CCCN(CC(CO)Nc2ccc3c(c2)Sc2cccc(-c4cc(N5CCOCC5)cc(=O)[nH]4)c2S3)C1 (stereo not drawn) [Example 1-37-1, 6-(7-((1-hydroxy-3-(3-methylpiperidin-1-yl)propan-2-yl)amino)thianthren-1-yl)-4-morpholinopyridin-2(1H)-one] |
| < 100 | COC[C@H](CN1CCOCC1)Nc1ccc2c(c1)Sc1cccc(-c3cc(=O)cc(N4CCOCC4)o3)c1S2 [Example 11-3, (S)-2-(7-((1-methoxy-3-morpholinopropan-2-yl)amino)thianthren-1-yl)-6-morpholino-4H-pyran-4-one] |
